The values below come from patent US6649367B2, “Human cancer cell line malignantly altered by expression of angiogenic factor” (Eisai Co., Ltd, priority 2001, dated 2003).

Molecules are shown by their SMILES.

The subject of the experiment is KP-1/VEGF cells. The experiment can be described thus: Effect on in vivo angiogenesis induced by KP-1/VEGF (chamber transplanted in mouse dorsal air sac, 51Cr-labelled blood cells). The note with it: for In vivo angiogenesis inhibitory effect: =(X−B)/(A−B)×100, A control, B collagen, X administered group; for In vivo angiogenesis-inducing activity (volume of blood vessel): C57BL/6N mouse, KP-1/VEGF chamber, four days after transplantation. How it is done: 3×10^6 cells/0.17 ml suspension of KP-1/VEGF cells was prepared using a collagen solution. In a chamber formed by adhering 0.45-μm Durapore filter membrane (Millipore) to a chamber ring (Millipore), 0.17 ml of the suspension was injected through the injection inlet and sealed. An air sac of about 10 ml was formed on dorsal subcutaneous portion of a 6-week-old female C57BL/6N mouse under anesthesia and the chamber enclosing the cells therein was transplanted in the air sac.
From the day of transplantation, ZD6474 as a VEGFR kinase inhibitor and ZD1839(Iressa) as an EGFR kinase inhibitor were each orally administered in dosage of 25, 50 or 100 mg/kg once a day for 4 days.
Four days after the transplantation, 2,500,000 cpm/ml of blood cell suspension prepared by labeling the cells with sodium chromate (^51Cr) (Amersham Pharmacia) was injected in an amount of 0.2 ml each through the tail vein of the chamber-transplanted mouse, and then the skin portion contacting the chamber was cut out and the radioactivity thereof was measured by use of a γ-counter. From the measured radioactivity, the amount of blood (volume of blood vessel) was calculated and was used as an index of in vivo angiogenesis-inducing activity.
Further, providing that the in vivo angiogenesis-inducing activity of control is A, the in vivo angiogenesis-inducing activity of collagen is B, and the in vivo angiogenesis-inducing activity of each administered group is X, in vivo angiogenesis inhibitory effect was obtained by the following equation. In vivo angiogenesis inhibitory effect (%)

Setting [1] is: 25 mg/kg orally once a day for 4 days.
The mark [2] stands for this setting: 50 mg/kg orally once a day for 4 days.
Setting [3] is: 100 mg/kg orally once a day for 4 days.

Consider `COc1cc2c(Nc3ccc(Br)cc3F)ncnc2cc1OCC1CCN(C)CC1` [ZD6474], for which the “In vivo angiogenesis inhibitory effect” value is on record as 68.0% under setting [1], 40.8% under setting [2] and −10.9% under setting [3]. The “In vivo angiogenesis-inducing activity (volume of blood vessel)” value worked out at 2.56 ± 0.26 µL under setting [1], 2.18 ± 0.38 µL under setting [2] and 1.47 ± 0.40 µL under setting [3].
As for `COc1cc2ncnc(Nc3ccc(F)c(Cl)c3)c2cc1OCCCN1CCOCC1` [ZD1839], the “In vivo angiogenesis-inducing activity (volume of blood vessel)” value by setting is: under setting [1], 2.75 ± 0.66 µL; under setting [2], 2.77 ± 0.47 µL; under setting [3], 2.76 ± 0.73 µL.
